Tested on in the first data set: not given
Experiment: not given
Conditions: not given
The term melting point denotes the temperature, or range, at which the solid turns liquid. `Cc1cc(-c2nc3ccccc3[nH]2)n[nH]1` [Example 236, 2-(5-Methyl-1H-pyrazol-3-yl)-1H-benzoimidazole] yielded a melting point of 322 to 324 °C.
Still for that read-out and setting: for `CCOc1cc(-c2nc3ccccc3[nH]2)n[nH]1` [Example 237, 2-(5-Ethoxy-1H-pyrazol-3-yl)-1H-benzoimidazole] the value was 217 to 219.5 °C; for `CSc1cc(-c2nc3ccccc3[nH]2)no1` [Example 238, 2-(5-Methylsulfanyl-isoxazol-3-yl)-1H-benzoimidazole], 179 to 181 °C.
In turn, `CSc1cc(-c2nc3ccccc3[nH]2)n[nH]1` [Example 240, (Benzoimidazol-2-yl)-5-methylthio-3-pyrazole] had a melting point of 242 °C.
On to `COc1cc2nc(-c3n[nH]cc3NC(=O)C3CC3)[nH]c2cc1Cl` [Example 258(a), Cyclopropanecarboxylic acid [3-(6-chloro-5-methoxy-1H-benzoimidazol-2-yl)-1H-pyrazol-4-yl]-amide], for which the melting point was in the range of 225 to 226 °C.

In another data set the target is T1, human KDR enzyme (Homo sapiens, UniProt P35968).
T1 construct: The cytoplasmic domain of human KDR enzyme is cloned in the form of a GST fusion; GST; made in house; host or cells: SF21 insect cells (baculovirus, pFastBac)
T1 sequence (P35968 786-1356 limits assumed): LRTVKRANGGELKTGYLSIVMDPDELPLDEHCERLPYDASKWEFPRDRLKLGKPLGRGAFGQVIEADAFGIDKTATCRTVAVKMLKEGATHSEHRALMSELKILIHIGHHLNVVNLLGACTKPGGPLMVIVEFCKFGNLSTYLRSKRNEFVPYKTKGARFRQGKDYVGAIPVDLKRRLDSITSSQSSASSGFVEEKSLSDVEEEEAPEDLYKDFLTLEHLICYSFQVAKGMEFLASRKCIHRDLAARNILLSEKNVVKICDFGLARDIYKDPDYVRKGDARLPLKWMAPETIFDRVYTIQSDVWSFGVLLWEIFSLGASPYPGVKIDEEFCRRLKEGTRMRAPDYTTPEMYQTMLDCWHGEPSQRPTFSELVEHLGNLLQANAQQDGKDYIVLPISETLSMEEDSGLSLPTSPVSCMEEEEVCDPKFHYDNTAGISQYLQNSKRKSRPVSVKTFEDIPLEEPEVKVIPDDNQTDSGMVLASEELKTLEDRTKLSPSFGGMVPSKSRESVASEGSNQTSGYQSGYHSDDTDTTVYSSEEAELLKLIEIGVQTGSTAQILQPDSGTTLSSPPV
In words: Phosphorylation of PLCγ substrate by the enzyme KDR in vitro (flashplate technique). It counts as biochemical. As to conditions: read-out: IC50 (μM) on inhibition of the phosphorylation of PLCγ by KDR. As for the experimental part:
1. Inhibitory Effects of Compounds on KDR
The inhibitory effect of the compounds is determined in a test of phosphorylation of a substrate by the enzyme KDR in vitro by the flasplate technique (96-well plate, NEN).
The cytoplasmic domain of human KDR enzyme is cloned in the form of a GST fusion into the baculovirus expression vector pFastBac. The protein is expressed in the SF21 cells and purified to about 60% homogeneity.
The kinase activity of KDR is measured in 20 mM MOPS, 10 mM MgCl2, 10 mM MnCl2, 1 mM DTT, 2.5 mM EGTA, 10 mM β glycerophosphate, pH 7.2 in the presence of 10 mM MgCl2, 100 μM Na3VO4, 1 mM NaF. 10 μl of the compound are added to 70 μl of kinase buffer containing 100 ng of KDR enzyme at 4° C. The reaction is initiated by adding 20 μl of solution containing 2 μg of substrate (fragment SH2-SH3 of PLCγ expressed in the form of a GST fusion protein), 2 μCi γ33P[ATP] and 2 μM cold ATP. After incubating for 1 hour at 37° C., the reaction is quenched by adding 1 volume (100 μl) of 200 mM EDTA. The incubation buffer is removed and the wells are washed three times with 300 μl of PBS. The radioactivity is measured in each well using a Top Count NXT instrument (Packard).
Background noise is determined by measuring the radioactivity in wells in quadruplet containing radioactive ATP and the substrate alone.
An activity control is measured in wells in quadruplet containing all the reagents (γ33P-[ATP], KDR and the substrate PLCγ) and in the absence of compound.
The inhibition of the KDR activity with the compound of the invention is expressed as a percentage of inhibition of the control activity determined in the absence of compound.
The compound SU5614 (Calbiochem) (1 μM) is included in each plate as inhibition control.
The IC50 values for the compounds are calculated by plotting the dose-response curves. The IC50 corresponds to the concentration of compound that induces a 50% inhibition of the kinase activity.
A word on the IC50: it is the concentration at which inhibition is half-maximal. As for “2-(1H-Indazol-3-yl)-1H-benzimidazole-5-carboxylic acid N-(2-furfuryl)amide [Example 12]”, the concentration for half-maximal inhibition (IC50) came out at 0.16 µM.
Same read-out and setting: to “2-(1H-Indazol-3-yl)-1H-benzimidazole-5-carboxylic acid N-(N′-methyl-piperazino)amide [Example 8]” belongs 0.67 µM.
Still for that read-out and setting: for “2-(1H-Indazol-3-yl)-1H-benzimidazole-5-carboxylic acid N-morpholinoamide [Example 7]” the value was 0.72 µM.
The same measure, in the same setting: for “2-(1H-Indazol-3-yl)-1H-benzimidazole-5-carboxylic acid N-pyrrolidinoamide [Example 9]” the value was 0.35 µM.

For the origin of these results see patent publication US6897208B2, “Benzimidazoles” (Aventis Pharmaceuticals Inc., priority 2001, dated 2005).
